For this assay, the system named is IL2 promoter. As to the kind of experiment: Human IL2 promoter reporter gene assay (RGA) in Jurkat cells. The assay is classed as cell-based. The procedure: Human IL2 Promoter Reporter Gene Assay (RGA) in Jurkat Cells
The transfected Jurkat clone K22 290_H23 was propagated in RPMI 1640 supplemented with 10% heat inactivated fetal calf serum, 50 μM 2-mercaptoethanol and 1 mg/ml Geneticin. The cell concentration should not exceed 1×10e6/ml during culturing. The cells should not exceed passage 30. Prior to the assay the cells were washed and prepared to the concentration of 2×10e6 cells/ml.
Compound dilutions were made as 2×-concentrated solutions then diluted ½ by addition to cells. Two hundred and fifty μl of compound dilution and 250 μl of cells were mixed together in wells of a 96-deep well plate. Cells/compounds premix were incubated 30 min at 37° C. and 5% CO2 directly in the deep well plate.
After pre-incubation of cells with compounds, cells were stimulated with anti-CD28 mAb (clone 15E8) at 3 μg/ml+PMA at 1 μg/ml. Both co-stimulants were diluted in culture medium at a 10×-concentrated solution. 10 μl of co-stimulants were pipetted into the white 96-well plates and 100 μl of cell/compound mix was immediately added in duplicates. The cells were stimulated for 5.5 h at 37° C. and 5% CO2.
After cell stimulation, 50 μl of BriteLitePlus reagent (Perkin Elmer) was added to each well and the bioluminescence was measured with a Wallac EnVision reader (Perkin Elmer).
On the technique in general: In a reporter assay the amount or activity of a reporter protein is the signal.

[1] abbreviates: anti-CD28 mAb + PMA stimulation 5.5 h.
Where [2] appears, read: […], heading: IL2 reporter gene assay IC50, anti-CD28 mAb + PMA stimulation 5.5 h.

Consider `CO[C@@H](C)c1c(NC(=O)Nc2ccnc(C(F)(F)F)c2)cnc2cc(Cl)nn12` [Example 2, (S)-1-(2-chloro-7-(1-methoxyethyl)pyrazolo[1,5-a]pyrimidin-6-yl)-3-(2-(trifluoromethyl)pyridin-4-yl)urea], for which the IC50 under setting [1] came out at 0.051 µM. The same measure, in the same setting: next, `CO[C@@H](C)c1c(NC(=O)Nc2cc(C(F)(F)F)cn(C)c2=O)cnc2cc(Cl)nn12` [Example 3, (S)-1-(2-chloro-7-(1-methoxyethyl)pyrazolo[1,5-a]pyrimidin-6-yl)-3-(1-methyl-2-oxo-5-(trifluoromethyl)-1,2-dihydropyridin-3-yl)urea]: 0.131 µM.

As to `CO[C@@H](c1c(NC(=O)Nc2cnc(-n3nccn3)c(Cl)c2)cnc2cc(Cl)nn12)C(C)C` [Example 5, (R)-1-(5-chloro-6-(2H-1,2,3-triazol-2-yl)pyridin-3-yl)-3-(2-chloro-7-(1-methoxy-2-methylpropyl)pyrazolo[1,5-a]pyrimidin-6-yl)urea], the IC50 under setting [2] is 0.052 µM. The same measure, in the same setting: next, `CO[C@@H](C)c1c(NC(=O)Nc2ccnc(C(F)(F)F)c2)cnc2cc(C)nn12` [Example 6, (S)-1-(7-(1-methoxyethyl)-2-methylpyrazolo[1,5-a]pyrimidin-6-yl)-3-(2-(trifluoromethyl)pyridin-4-yl)urea]: 0.03 µM; `CO[C@@H](C)c1c(NC(=O)Nc2ccnc(C(F)(F)F)c2)cnc2cc(F)nn12` [Example 7, (S)-1-(2-fluoro-7-(1-methoxyethyl)pyrazolo[1,5-a]pyrimidin-6-yl)-3-(2-(trifluoromethyl)pyridin-4-yl)urea]: 0.033 µM; `CO[C@@H](C)c1c(NC(=O)Nc2cncc(C#N)c2)cnc2cc(Cl)nn12` [Example 8, (S)-1-(2-chloro-7-(1-methoxyethyl)pyrazolo[1,5-a]pyrimidin-6-yl)-3-(5-cyanopyridin-3-yl)urea]: 0.109 µM. On the same count and under the same terms, next, `COc1ncc(NC(=O)Nc2cnc3cc(Cl)nn3c2[C@H](C)OC)cc1Cl` [Example 9, (S)-1-(5-chloro-6-methoxypyridin-3-yl)-3-(2-chloro-7-(1-methoxyethyl)pyrazolo [1,5-a]pyrimidin-6-yl)urea]: 0.019 µM. Same read-out and setting: next, `CO[C@@H](C)c1c(NC(=O)Nc2ccnc(Cl)c2)cnc2cc(Cl)nn12` [Example 12, (S)-1-(2-chloro-7-(1-methoxyethyl)pyrazolo [1,5-a]pyrimidin-6-yl)-3-(2-chloropyridin-4-yl)urea]: 0.039 µM; `COC(=O)c1cc(Cl)cc(NC(=O)Nc2cnc3cc(Cl)nn3c2[C@H](C)OC)c1` [Example 13, (S)-methyl 3-chloro-5-(3-(2-chloro-7-(1-methoxyethyl)pyrazolo [1,5-a]pyrimidin-6-yl)ureido)benzoate]: 0.067 µM. On to `CC1(c2c(NC(=O)Nc3cnc(-n4nccn4)c(Cl)c3)cnc3cc(Cl)nn23)CC1` [Example 16, 1-(5-chloro-6-(2H-1,2,3-triazol-2-yl)pyridin-3-yl)-3-(2-chloro-7-(1-methylcyclopropyl)pyrazolo[1,5-a]pyrimidin-6-yl)urea], for which, under setting [2], the IC50 was found to be 0.207 µM. For `CC1(c2c(NC(=O)Nc3ccnc(C(F)(F)F)c3)cnc3cc(Cl)nn23)CC1` [Example 17, 1-(2-chloro-7-(1-methylcyclopropyl)pyrazolo[1,5-a]pyrimidin-6-yl)-3-(2-(trifluoromethyl)pyridin-4-yl)urea], the IC50 under setting [2] was 0.149 µM. Take `COc1ncc(NC(=O)Nc2cnc3cc(Cl)nn3c2C(C)C)cc1Cl` [Example 18, 1-(5-chloro-6-methoxypyridin-3-yl)-3-(2-chloro-7-isopropylpyrazolo[1,5-a]pyrimidin-6-yl)urea]: the IC50 under setting [2] turned out to be 0.245 µM. The same measure, in the same setting: to `Cc1ncn(-c2ccc(NC(=O)Nc3cnc4cc(Cl)nn4c3C(C)C)cc2C#N)n1` [Example 19, 1-(2-chloro-7-isopropylpyrazolo[1,5-a]pyrimidin-6-yl)-3-(3-cyano-4-(3-methyl-1H-1,2,4-triazol-1-yl)phenyl)urea] belongs 0.104 µM; to `CC(C)c1c(NC(=O)Nc2ccc(-n3nccn3)c(Cl)c2)cnc2cc(Cl)nn12` [Example 20, l-(3-chloro-4-(2H-1,2,3-triazol-2-yl)phenyl)-3-(2-chloro-7-isopropylpyrazolo [1,5-a]pyrimidin-6-yl)urea], 0.1 µM.

Take `CC(C)c1c(NC(=O)Nc2cnc(-n3nccn3)c(Cl)c2)cnc2cc(Cl)nn12` [Example 21, 1-(5-chloro-6-(2H-1,2,3-triazol-2-yl)pyridin-3-yl)-3-(2-chloro-7-isopropylpyrazolo[1,5-a]pyrimidin-6-yl)urea]: the IC50 under setting [2] worked out at 0.307 µM. The same measure, in the same setting: next, `Cc1cnn(-c2ncc(NC(=O)Nc3cnc4cc(Cl)nn4c3C(C)C)cc2Cl)n1` [Example 22, 1-(5-chloro-6-(4-methyl-2H-1,2,3-triazol-2-yl)pyridin-3-yl)-3-(2-chloro-7-isopropylpyrazolo[1,5-a]pyrimidin-6-yl)urea]: 0.214 µM; `CCOc1ncc(NC(=O)Nc2cnc3cc(Cl)nn3c2C(C)C)cc1Cl` [Example 25, 1-(5-chloro-6-ethoxypyridin-3-yl)-3-(2-chloro-7-isopropylpyrazolo[1,5-a]pyrimidin-6-yl)urea]: 0.248 µM; `CC(C)c1c(NC(=O)Nc2cnc(N3CCCS3(=O)=O)c(C(F)(F)F)c2)cnc2cc(Cl)nn12` [Example 27, 1-(2-chloro-7-isopropylpyrazolo[1,5-a]pyrimidin-6-yl)-3-(6-(1,1-dioxidoisothiazolidin-2-yl)-5-(trifluoromethyl)pyridin-3-yl)urea]: 0.507 µM.

Regarding `CC(C)c1c(NC(=O)Nc2cnc(-c3ccnn3C)c(Cl)c2)cnc2cc(Cl)nn12` [Example 29, 1-(5-chloro-6-(1-methyl-1H-pyrazol-5-yl)pyridin-3-yl)-3-(2-chloro-7-isopropylpyrazolo[1,5-a]pyrimidin-6-yl)urea], the IC50 under setting [2] is 0.221 µM. The same measure, in the same setting: to `CC(C)c1c(NC(=O)Nc2cc(C(F)(F)F)cn(C)c2=O)cnc2cc(Cl)nn12` [Example 32, 1-(2-chloro-7-isopropylpyrazolo[1,5-a]pyrimidin-6-yl)-3-(1-methyl-2-oxo-5-(trifluoromethyl)-1,2-dihydropyridin-3-yl)urea] belongs 0.059 µM. On the same count and under the same terms, next, `CC(C)(C)c1c(NC(=O)Nc2cnc(-n3nccn3)c(Cl)c2)cnc2cc(Cl)nn12` [Example 34, 1-(7-(tert-butyl)-2-chloropyrazolo[1,5-a]pyrimidin-6-yl)-3-(5-chloro-6-(2H-1,2,3-triazol-2-yl)pyridin-3-yl)urea]: 0.145 µM. Still for that read-out and setting: to `CC1(c2c(NC(=O)Nc3ccnc(C(F)(F)F)c3)cnc3cc(Cl)nn23)CCCO1` (stereo not drawn) [Example 36, 1-(2-chloro-7-(2-methyltetrahydrofuran-2-yl)pyrazolo[1,5-a]pyrimidin-6-yl)-3-(2-(trifluoromethyl)pyridin-4-yl)urea] belongs 0.043 µM; to `COCCO[C@@H](C)c1c(NC(=O)Nc2ccnc(C(F)(F)F)c2)cnc2cc(Cl)nn12` [Example 41, (S)-1-(2-chloro-7-(1-(2-methoxyethoxy)ethyl)pyrazolo[1,5-a]pyrimidin-6-yl)-3-(2-(trifluoromethyl)pyridin-4-yl)urea], 0.082 µM; to `COC[C@H](C)c1c(NC(=O)Nc2cnc(-n3nccn3)c(Cl)c2)cnc2cc(Cl)nn12` [Example 45, (R)-1-(5-chloro-6-(2H-1,2,3-triazol-2-yl)pyridin-3-yl)-3-(2-chloro-7-(1-methoxypropan-2-yl)pyrazolo[1,5-a]pyrimidin-6-yl)urea], 0.063 µM. In the case of `CO[C@H](C)c1c(NC(=O)Nc2ccnc(C(F)(F)F)c2)cnc2cc(Cl)nn12` [Example 47, (R)-1-(2-chloro-7-(1-methoxyethyl)pyrazolo [1,5-a]pyrimidin-6-yl)-3-(2-(trifluoromethyl)pyridin-4-yl)urea], under setting [2], the IC50 came to 0.094 µM. On the same count and under the same terms, to `COC(c1ccccc1)c1c(NC(=O)Nc2cnc(-n3nccn3)c(Cl)c2)cnc2cc(Cl)nn12` (stereo not drawn) [Example 49, 1-(5-chloro-6-(2H-1,2,3-triazol-2-yl)pyridin-3-yl)-3-(2-chloro-7-(methoxy(phenyl)methyl)pyrazolo[1,5-a]pyrimidin-6-yl)urea] belongs 0.095 µM; to `COCC1(c2c(NC(=O)Nc3ccnc(C(F)(F)F)c3)cnc3cc(Cl)nn23)CCC1` [Example 51, 1-(2-chloro-7-(1-(methoxymethyl)cyclobutyl)pyrazolo[1,5-a]pyrimidin-6-yl)-3-(2-(trifluoromethyl)pyridin-4-yl)urea], 0.267 µM. On the same count and under the same terms, next, `O=C(Nc1cnc(-n2nccn2)c(C(F)(F)F)c1)Nc1cnc2cc(Cl)nn2c1C1CCCO1` (stereo not drawn) [Example 54, 1-(6-(2H-1,2,3-triazol-2-yl)-5-(trifluoromethyl)pyridin-3-yl)-3-(2-chloro-7-(tetrahydrofuran-2-yl)pyrazolo[1,5-a]pyrimidin-6-yl)urea]: 0.266 µM; `CC(C)OCc1c(NC(=O)Nc2cnc(-n3nccn3)c(Cl)c2)cnc2cc(Cl)nn12` [Example 61, 1-(5-chloro-6-(2H-1,2,3-triazol-2-yl)pyridin-3-yl)-3-(2-chloro-7-(isopropoxymethyl)pyrazolo[1,5-a]pyrimidin-6-yl)urea]: 0.014 µM; `Cc1c(NC(=O)Nc2cnc(-n3nccn3)c(Cl)c2)cnc2cc(Cl)nn12` [Example 62, 1-(5-chloro-6-(2H-1,2,3-triazol-2-yl)pyridin-3-yl)-3-(2-chloro-7-methylpyrazolo[1,5-a]pyrimidin-6-yl)urea]: 0.14 µM.

Broadly, the IC50 is the midpoint of a concentration-inhibition curve.
